Patent US11149031B2, “Substituted N-(3-fluoropropyl)-pyrrolidine compounds, processes for their preparation and therapeutic uses thereof” (SANOFI, priority 2016, dated 2021)

Columns and labels:
ERα in MCF7 cells = ERα in MCF7 cells (Homo sapiens (Human), UniProt P03372); assay: Test C: estrogen receptor degradation activity, ERα in cell western assay in MCF7 cells; format: cell-based; conditions: for DC50: 4 hours post compound addition, ERα in cell western, read-out: Degradation IC50; for % Degradation at 3 μM: 4 hours, relative to fulvestrant
Method: Test C: Estrogen Receptor Degradation Activity
Test C involves measuring the in vitro degradation activity of the compounds of the invention.
The measurements of the degradation activities were made using abreast cancer cell ERα in cell western assay as described hereunder.
MCF7 cells (ATCC) were seeded in 384 wells microplate (collagen coated) at concentration of >9990 cells/30 μL per well in red phenol free MEM alpha medium (invitrogen) containing 5% charcoal dextran striped FBS. The following day, 9 points serial 1:5 dilution of each compound were added to the cells in 2.5 μL at final concentrations ranging from 3-0.000018 μM or 0.1 μM for fulvestrant (using as positive control). At 4 hours post compounds addition the cells were fixed by adding 25 μL of formalin (final concentration 5% formalin containing 0.1% triton) for 10 minutes at room temperature and then washed twice with PBS. Then, 50 μL of LI-COR blocking buffer containing 0.1% Triton was added to plate for 30 minutes at room temperature. LI-COR blocking buffer was removed and cells were incubated overnight at cold room with 50 μL anti-ER rabbit monoclonal antibody (Thermo scientific MA1-39540) diluted at 1:>999 in LI-COR blocking buffer containing 0.1% tween-20. Wells which were treated with blocking but no antibody were used as background control. Wells were washed twice with PBS (0.1% tween-20) and incubated at 37° C. for 60 minutes in LI-COR (0.1% tween-20) containing goat anti-rabbit antibody Alexa 488 (1:>999) and Syto-64 a DNA dye (2 μM final concentration). Cells were then washed 3 times in PBS and scanned in ACUMEN explorer (TTP-Labtech). Integrated intensities in the green fluorescence and red fluorescence were measured to determine the levels of ERα and DNA respectively.

[1] = molecular target: His6-ERα298-554 WT (ERα ligand-binding domain) (Homo sapiens (Human), UniProt P03372); assay: Test A: biochemical antagonist activity, LanthaScreen TR-FRET ERα coactivator assay, WT; conditions: protocol with 3 nM estradiol; read-out: Antagonism WT IC50
Method: (§1) Test A: Biochemical Antagonist Activity on Wild Type (WT) and Mutants
(§2) Estrogen Receptors Test A involves measuring the in vitro antagonist activity of the compounds of the invention on estrogen receptors.
(§3) The measurements of the antagonist activities were made using an estrogen receptor coactivator assay as described hereunder.
(§4) Antagonistic potency of compounds was evaluated using LanthaScreen® TR-FRET ERα Coactivator Assay (ThermoFisher) with modifications. […] The assay works in a homogeneous mix-and-read format. In a typical experiment, a 4 μL mixture of 0.5 nM His6-ERα298-554, 0.5 nM Tb-labeled His6 antibody, 250 nM PGC1a peptide, and 3 nM estradiol (or 10 nM estradiol) in 100 mM potassium phosphate, pH 7.4, 0.01% Tween-20, 0.02% NaN3, 5 mM DTT, was added to 40 nL test compound in DMSO and incubated overnight at room temperature. The TR-FRET 520:495 nm emission ratio was calculated and used to determine the IC50 value from a dose response curve fit to the 4-parameter logistic equation.

[2] = molecular target: His6-ERα298-554 D538G mutant (ERα ligand-binding domain) (Homo sapiens (Human), UniProt P03372, D538G); assay: Test A: biochemical antagonist activity, LanthaScreen TR-FRET ERα coactivator assay, D538G mutant; conditions: protocol with 3 nM estradiol; read-out: Antagonism D538G IC50
Method: as §1, §2, §3, §4

[3] = molecular target: His6-ERα298-554 Y537S mutant (ERα ligand-binding domain) (Homo sapiens (Human), UniProt P03372, Y537S); assay: Test A: biochemical antagonist activity, LanthaScreen TR-FRET ERα coactivator assay, Y537S mutant; conditions: protocol with 3 nM estradiol; read-out: Antagonism Y537S IC50
Method: as §1, §2, §3, §4

Chain of His6-ERα298-554 WT (ERα ligand-binding domain) (P03372 298-554): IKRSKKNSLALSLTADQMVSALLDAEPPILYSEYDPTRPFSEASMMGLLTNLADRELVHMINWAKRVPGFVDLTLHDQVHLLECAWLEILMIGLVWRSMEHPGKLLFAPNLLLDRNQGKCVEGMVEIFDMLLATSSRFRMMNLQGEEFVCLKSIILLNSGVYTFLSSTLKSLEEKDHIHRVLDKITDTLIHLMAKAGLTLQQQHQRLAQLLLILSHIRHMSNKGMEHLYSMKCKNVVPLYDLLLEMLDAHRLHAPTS
Chain of His6-ERα298-554 D538G mutant (ERα ligand-binding domain) (P03372 298-554 D538G): as the sequence (P03372 298-554) above, with D241G counted along it
Chain of ERα in MCF7 cells (P03372 whole entry): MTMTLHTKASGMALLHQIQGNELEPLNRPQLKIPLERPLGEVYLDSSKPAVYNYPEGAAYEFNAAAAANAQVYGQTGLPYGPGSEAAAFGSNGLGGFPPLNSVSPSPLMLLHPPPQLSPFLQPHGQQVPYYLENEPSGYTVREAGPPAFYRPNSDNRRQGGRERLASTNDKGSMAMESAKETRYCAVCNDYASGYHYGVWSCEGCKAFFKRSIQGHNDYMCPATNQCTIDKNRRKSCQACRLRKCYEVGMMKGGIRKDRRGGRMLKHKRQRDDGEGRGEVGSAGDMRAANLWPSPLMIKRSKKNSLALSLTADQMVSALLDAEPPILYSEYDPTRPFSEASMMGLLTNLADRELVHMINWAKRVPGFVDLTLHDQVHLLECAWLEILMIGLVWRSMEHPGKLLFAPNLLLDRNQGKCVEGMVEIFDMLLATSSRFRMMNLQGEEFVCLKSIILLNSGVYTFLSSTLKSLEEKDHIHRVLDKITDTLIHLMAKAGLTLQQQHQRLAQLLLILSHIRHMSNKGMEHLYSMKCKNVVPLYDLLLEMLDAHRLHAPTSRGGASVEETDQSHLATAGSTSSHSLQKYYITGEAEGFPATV
Chain of His6-ERα298-554 Y537S mutant (ERα ligand-binding domain) (P03372 298-554 Y537S): as the sequence (P03372 298-554) above, with Y240S counted along it

Cc1ccc(C2=C(c3ccc(O[C@H]4CCN(CCCF)C4)cc3)c3ccc(O)c(Cl)c3OCC2)c(F)c1 [Example 108, 9-chloro-4-(2-fluoro-4-methyl-phenyl)-5-[4-[(3S)-1-(3-fluoropropyl)pyrrolidin-3-yl]oxyphenyl]-2,3-dihydro-1-benzoxepin-8-ol]
DC50 (ERα in MCF7 cells): 0.003 µM | % Degradation at 3 μM (ERα in MCF7 cells): 86% | IC50 [1]: 0.03 µM | IC50 [2]: 0.221 µM | IC50 [3]: 0.129 µM

Oc1ccc2c(c1)SCCC(c1ccc(Cl)c(F)c1)=C2c1ccc(O[C@H]2CCN(CCCF)C2)cc1 [Example 161, 4-(4-chloro-3-fluoro-phenyl)-5-[4-[(3S)-1-(3-fluoropropyl)pyrrolidin-3-yl]oxyphenyl]-2,3-dihydro-1-benzothiepin-8-ol]
DC50 (ERα in MCF7 cells): 0.0007 µM | % Degradation at 3 μM (ERα in MCF7 cells): 93% | IC50 [1]: 0.006 µM | IC50 [2]: 0.031 µM | IC50 [3]: 0.022 µM

O=S1(=O)CCC(c2ccc(Cl)cc2F)=C(c2ccc(O[C@H]3CCN(CCCF)C3)cc2)c2ccc(O)cc21 [Example 233, 4-(4-chloro-2-fluoro-phenyl)-5-[4-[(3S)-1-(3-fluoropropyl)pyrrolidin-3-yl]oxyphenyl]-1,1-dioxo-2,3-dihydro-1λ^6-benzothiepin-8-ol]
DC50 (ERα in MCF7 cells): 0.0002 µM | % Degradation at 3 μM (ERα in MCF7 cells): 94% | IC50 [1]: 0.02 µM | IC50 [2]: 0.128 µM | IC50 [3]: 0.07 µM

O=S1(=O)CCC(c2cccc(O)c2)=C(c2ccc(O[C@H]3CCN(CCCF)C3)cc2)c2ccc(O)cc21 [Example 228, 5-[4-[(3S)-1-(3-fluoropropyl)pyrrolidin-3-yl]oxyphenyl]-4-(3-hydroxyphenyl)-1,1-dioxo-2,3-dihydro-benzothiepin-8-ol]
DC50 (ERα in MCF7 cells): 0.0002 µM | % Degradation at 3 μM (ERα in MCF7 cells): 87% | IC50 [1]: 0.006 µM | IC50 [2]: 0.073 µM | IC50 [3]: 0.038 µM

Cc1c(Cl)cccc1C1=C(c2ccc(O[C@H]3CCN(CCCF)C3)cc2)c2ccc(O)cc2S(=O)(=O)CC1 [Example 235, 4-(3-chloro-2-methyl-phenyl)-5-[4-[(3S)-1-(3-fluoropropyl)pyrrolidin-3-yl]oxyphenyl]-1,1-dioxo-2,3-dihydro-1λ^6-benzothiepin-8-ol]
DC50 (ERα in MCF7 cells): 0.0009 µM | % Degradation at 3 μM (ERα in MCF7 cells): 95% | IC50 [1]: 0.013 µM | IC50 [2]: 0.1 µM | IC50 [3]: 0.083 µM

Cc1cc(C2=C(c3ccc(O[C@H]4CCN(CCCF)C4)cc3)c3ccc(O)cc3OCC2)ccc1Cl [Example 99, 4-(4-chloro-3-methyl-phenyl)-5-[4-[(3S)-1-(3-fluoropropyl)pyrrolidin-3-yl]oxyphenyl]-2,3-dihydro-1-benzoxepin-8-ol]
DC50 (ERα in MCF7 cells): 0.0007 µM | % Degradation at 3 μM (ERα in MCF7 cells): 89% | IC50 [1]: 0.005 µM | IC50 [2]: 0.036 µM | IC50 [3]: 0.025 µM

Cc1cc(F)ccc1C1=C(c2ccc(O[C@H]3CCN(CCCF)C3)cc2)c2ccc(O)cc2OCC1 [Example 100, 4-(4-fluoro-2-methyl-phenyl)-5-[4-[(3S)-1-(3-fluoropropyl)pyrrolidin-3-yl]oxyphenyl]-2,3-dihydro-1-benzoxepin-8-ol]
DC50 (ERα in MCF7 cells): 0.0002 µM | % Degradation at 3 μM (ERα in MCF7 cells): 88% | IC50 [1]: 0.007 µM | IC50 [2]: 0.054 µM | IC50 [3]: 0.025 µM

Cc1cc(F)ccc1C1=C(c2ccc(O[C@H]3CCN(CCCF)C3)cc2)c2ccc(O)cc2SCC1 [Example 165, 4-(4-fluoro-2-methyl-phenyl)-5-[4-[(3S)-1-(3-fluoropropyl)pyrrolidin-3-yl]oxyphenyl]-2,3-dihydro-1-benzothiepin-8-ol]
DC50 (ERα in MCF7 cells): 0.0002 µM | % Degradation at 3 μM (ERα in MCF7 cells): 90% | IC50 [1]: 0.003 µM | IC50 [2]: 0.011 µM | IC50 [3]: 0.008 µM

Cc1cccc(C2=C(c3ccc(O[C@H]4CCN(CCCF)C4)cc3)c3ccc(O)cc3OCC2)c1C [Example 122, 4-(2,3-dimethylphenyl)-5-[4-[(3S)-1-(3-fluoropropyl)pyrrolidin-3-yl]oxyphenyl]-2,3-dihydro-1-benzoxepin-8-ol]
DC50 (ERα in MCF7 cells): 0.0003 µM | % Degradation at 3 μM (ERα in MCF7 cells): 91% | IC50 [1]: 0.003 µM | IC50 [2]: 0.041 µM | IC50 [3]: 0.024 µM

Cc1ccc(C2=C(c3ccc(O[C@H]4CCN(CCCF)C4)cc3)c3ccc(O)cc3S(=O)(=O)CC2)c(F)c1 [Example 230, 4-(2-fluoro-4-methyl-phenyl)-5-[4-[(3S)-1-(3-fluoropropyl)pyrrolidin-3-yl]oxyphenyl]-1,1-dioxo-2,3-dihydro-1λ^6-benzothiepin-8-ol]
DC50 (ERα in MCF7 cells): 0.0008 µM | % Degradation at 3 μM (ERα in MCF7 cells): 93% | IC50 [1]: 0.014 µM | IC50 [2]: 0.099 µM | IC50 [3]: 0.041 µM

Oc1ccc2c(c1)OCCC(c1ccc(Cl)c(F)c1)=C2c1ccc(O[C@H]2CCN(CCCF)C2)cc1 [Example 97, 4-(4-chloro-3-fluoro-phenyl)-5-[4-[(3S)-1-(3-fluoropropyl)pyrrolidin-3-yl]oxyphenyl]-2,3-dihydro-1-benzoxepin-8-ol]
DC50 (ERα in MCF7 cells): 0.0002 µM | % Degradation at 3 μM (ERα in MCF7 cells): 94% | IC50 [1]: 0.05 µM | IC50 [2]: 0.358 µM | IC50 [3]: 0.018 µM

Oc1ccc2c(c1)OCCC(c1ccc(F)cc1Cl)=C2c1ccc(O[C@H]2CCN(CCCF)C2)cc1 [Example 92, 4-(2-chloro-4-fluoro-phenyl)-5-[4-[(3S)-1-(3-fluoropropyl)pyrrolidin-3-yl]oxyphenyl]-2,3-dihydro-1-benzoxepin-8-ol]
DC50 (ERα in MCF7 cells): 0.0005 µM | % Degradation at 3 μM (ERα in MCF7 cells): 96% | IC50 [1]: 0.007 µM | IC50 [2]: 0.059 µM | IC50 [3]: 0.022 µM

Oc1ccc2c(c1)C(c1ccc(O[C@H]3CCN(CCCF)C3)cc1)=C(c1cccc(F)c1Cl)CCS2 [Example 170, 4-(2-chloro-3-fluoro-phenyl)-5-[4-[(3S)-1-(3-fluoropropyl)pyrrolidin-3-yl]oxyphenyl]-2,3-dihydro-1-benzothiepin-7-ol]
DC50 (ERα in MCF7 cells): 0.001 µM | % Degradation at 3 μM (ERα in MCF7 cells): 81% | IC50 [1]: 0.018 µM | IC50 [2]: 0.129 µM | IC50 [3]: 0.082 µM

Oc1ccc2c(c1)C(c1ccc(O[C@H]3CCN(CCCF)C3)cc1)=C(C1=CCOCC1)CC2 [Example 3, 7-(3,6-dihydro-2H-pyran-4-yl)-8-[4-[(3S)-1-(3-fluoropropyl)pyrrolidin-3-yl]oxyphenyl]-5,6-dihydronaphthalen-2-ol]
DC50 (ERα in MCF7 cells): 0.085 µM | % Degradation at 3 μM (ERα in MCF7 cells): 80% | IC50 [1]: 1.51 µM

Oc1ccc2c(c1)SCC(c1ccc(Cl)cc1Cl)=C2c1ccc(O[C@H]2CCN(CCCF)C2)cc1 [Example 21, 3-(2,4-dichlorophenyl)-4-[4-[(3S)-1-(3-fluoropropyl)pyrrolidin-3-yl]oxyphenyl]-2H-thiochromen-7-ol]
DC50 (ERα in MCF7 cells): 0.003 µM | % Degradation at 3 μM (ERα in MCF7 cells): 92% | IC50 [1]: 0.009 µM | IC50 [2]: 0.047 µM | IC50 [3]: 0.019 µM

Oc1ccc2c(c1)C(c1ccc(O[C@H]3CCN(CCCF)C3)cc1)=C(c1ccc(F)cc1Cl)CC2 [Example 4, 7-(2-chloro-4-fluoro-phenyl)-8-[4-[(3S)-1-(3-fluoropropyl)pyrrolidin-3-yl]oxyphenyl]-5,6-dihydronaphthalen-2-ol]
DC50 (ERα in MCF7 cells): 0.012 µM | % Degradation at 3 μM (ERα in MCF7 cells): 87% | IC50 [1]: 0.284 µM

Oc1ccc2c(c1)C(c1ccc(O[C@H]3CCN(CCCF)C3)cc1)=C(c1ccncc1F)CC2 [Example 1, 8-[4-[(3S)-1-(3-fluoropropyl)pyrrolidin-3-yl]oxyphenyl]-7-(3-fluoro-4-pyridyl)-5,6-dihydronaphthalen-2-ol]
DC50 (ERα in MCF7 cells): 0.034 µM | % Degradation at 3 μM (ERα in MCF7 cells): 84% | IC50 [1]: 0.46 µM

O=S1(=O)CCC(c2ccc(Cl)cc2Cl)=C(c2ccc(O[C@H]3CCN(CCCF)C3)cc2)c2ccc(O)cc21 [Example 231, 4-(2,4-dichlorophenyl)-5-[4-[(3S)-1-(3-fluoropropyl)pyrrolidin-3-yl]oxyphenyl]-1,1-dioxo-2,3-dihydro-1λ^6-benzothiepin-8-ol]
DC50 (ERα in MCF7 cells): 0.002 µM | % Degradation at 3 μM (ERα in MCF7 cells): 96%

Oc1ccc2c(c1)C(c1ccc(O[C@H]3CCN(CCCF)C3)cc1)=C(c1ccc(Cl)cc1Cl)CCS2 [Example 182, 4-(2,4-dichlorophenyl)-5-[4-[(3S)-1-(3-fluoropropyl)pyrrolidin-3-yl]oxyphenyl]-2,3-dihydro-1-benzothiepin-7-ol]
DC50 (ERα in MCF7 cells): 0.005 µM | % Degradation at 3 μM (ERα in MCF7 cells): 79%
